Data from patent EP2718307B1, “BETA-HAIRPIN PEPTIDOMIMETICS AS CXC4 ANTAGONISTS” (Polyphor AG, priority 2011, dated 2012).
Bridge positions count the residues as written; N and C are the ends. Square brackets hold non-standard residues; d marks the D form. Peptide text beside a SMILES is read from it. Lys(iPr) = CC(C)NCCCC[C@H](N)C(=O)O; Orn(iPr) = CC(C)NCCC[C@H](N)C(=O)O

Tested on: HSC mobilization
Assay: HSC mobilization in mouse (time-response and dose-response study, CFU-C assay)
Type: in vivo, Male C57BI/6 mice
Conditions: for time of maximum mobilization: from time-response study; for ED50: sigmoidal fit of doses 1.5, 5 and 15 mg/kg i.p., maximum constrained to 4000 CFU/mL, ED50 corresponds to 2000 CFU/mL
Procedure: For the compounds of Ex. 1 and Ex. 2 a HSC mobilization study was performed consisting of a time-response study to assess the time of maximum mobilization after dosing and a subsequent dose-response study.
Male C57BI/6 mice (Janvier, France; n = 5 for Ex. 1, n = 3 for Ex. 2) received bolus i.p. injections of Ex. 1 and Ex. 2, respectively, (5 mg/kg) dissolved in 10 µL of water per g mouse weight containing 0.9% NaCl. Blood was withdrawn from the cheek pouch into EDTA coated tubes for the time points 0, 0.5, 1, 2, 4, 6 and 8 hrs after administration. The colony forming unit in culture counts (CFU-C counts) were determined by performing a CFU-C assay as described below.
Male C57BI/6 mice (Janvier, France; n = 5 per dose group for Ex. 1, n = 3 per dose group for Ex. 2) received bolus i.p. injections of Ex. 1 and Ex. 2, respectively, at doses of 0.5, 1.5, 5 and 15 mg/kg (compound dissolved in 10 µL of water per g mouse weight containing 0.9% NaCl). Blood was collected as described above at the time of maximum mobilization for Ex. 1 (4 h) and Ex. 2 (2 h), respectively.
CFU-C counts were determined by culturing aliquots of lysed peripheral blood in standard semi-solid progenitor cell culture medium. In brief, a defined amount of blood was washed with PBS buffer (Gibco®) containing 0.5% bovine serum albumin, followed by red blood cell lysis in hypotonic NH4Cl buffer (Sigma) and a second wash step. The cell pellet was resuspended in DMEM (Gibco®) containing 10% FCS, suspended in 2 mL of commercially available, cytokine-replete methylcellulose medium for murine cells (Cell Systems, USA), and plated in duplicate into 35 mm cell culture dishes. CFU-C were scored after 7-8 days incubation under standard conditions (20% O2, saturated humidity, 5% CO2, 37 °C). Peripheral blood cellularity was analyzed using an automated blood count machine (Drew Scientific).
Considering the curve progressions of both compounds the dose-responses are constrained to a maximum response of 4000 CFU/mL. The ED50-values indicated in Table 9 are therefore corresponding to a response of 2000 CFU/mL.

[1] = time-response study, 5 mg/kg bolus i.p., 0.5 h after administration
[2] = time-response study, 5 mg/kg bolus i.p., 1 h after administration
[3] = time-response study, 5 mg/kg bolus i.p., 2 h after administration
[4] = time-response study, 5 mg/kg bolus i.p., 4 h after administration
[5] = time-response study, 5 mg/kg bolus i.p., 6 h after administration
[6] = time-response study, 5 mg/kg bolus i.p., 8 h after administration

| SMILES | CFU/mL ± SD (dose-response study, 0.5 mg/kg bolus i.p., blood collected at 4 h) | CFU/mL ± SD (dose-response study, 1.5 mg/kg bolus i.p., blood collected at 4 h) | CFU/mL ± SD (dose-response study, 5 mg/kg bolus i.p., blood collected at 4 h) | CFU/mL ± SD (dose-response study, 15 mg/kg bolus i.p., blood collected at 4 h) | time of maximum mobilization (5 mg/kg bolus i.p.) | ED50 | CFU/mL ± SD [1] | CFU/mL ± SD [2] | CFU/mL ± SD [3] | CFU/mL ± SD [4] | CFU/mL ± SD [5] | CFU/mL ± SD [6] | CFU/mL ± SD (dose-response study, 1.5 mg/kg bolus i.p., blood collected at 2 h) | CFU/mL ± SD (dose-response study, 5 mg/kg bolus i.p., blood collected at 2 h) | CFU/mL ± SD (dose-response study, 15 mg/kg bolus i.p., blood collected at 2 h) |
| --- | --- | --- | --- | --- | --- | --- | --- | --- | --- | --- | --- | --- | --- | --- | --- |
| CC(C)NCCCC[C@@H]1NC(=O)[C@H](CCC(N)=O)NC(=O)[C@H](Cc2ccc(O)cc2)NC(=O)[C@@H]2CSSC[C@H](NC(=O)[C@H](Cc3ccc(O)cc3)NC(=O)[C@H](Cc3c[nH]cn3)NC(=O)[C@H](Cc3ccc(O)cc3)NC(=O)[C@@H]3CCCN3C(=O)[C@H]3CCCN3C1=O)C(=O)N[C@@H](CO)C(=O)N[C@@H](C)C(=O)N1CCC[C@@H]1C(=O)N[C@@H](CCCNC(C)C)C(=O)N[C@@H](CCCNC(=N)N)C(=O)N[C@@H](Cc1ccc(O)cc1)C(=O)N2 [Ex. 1, cyclo(-Tyr^1-His^2-Tyr^3-Cys^4-Ser^5-Ala^6-^DPro^7-Orn(iPr)^8-Arg^9-Tyr^10-Cys^11-Tyr^12-Gln^13-Lys(iPr)^14-^DPro^15-Pro^16-), disulfide bond between Cys^4 and Cys^11] (cyclo(YHYCSA[dP][Orn(iPr)]RYCYQ[Lys(iPr)][dP]P); disulfide 4-11) | 974 ± 57 CFU/mL | 1672 ± 233 CFU/mL | 3325 ± 310 CFU/mL | 3289 ± 431 CFU/mL | 4 h | 1.76 mg/kg | 511 ± 85 CFU/mL | 2208 ± 262 CFU/mL | 2592 ± 450 CFU/mL | 3109 ± 537 CFU/mL | 1857 ± 281 CFU/mL | 588 ± 161 CFU/mL | – | – | – |
| COc1ccc(C[C@@H]2NC(=O)[C@H](Cc3c[nH]cn3)NC(=O)[C@H](Cc3ccc(O)cc3)NC(=O)[C@@H]3CCCN3C(=O)[C@H]3CCCN3C(=O)[C@H](CCCCNC(C)C)NC(=O)[C@H](CCC(N)=O)NC(=O)[C@H](Cc3ccc(O)cc3)NC(=O)[C@@H]3CSSC[C@H](NC2=O)C(=O)N[C@@H](CO)C(=O)N[C@@H](C)C(=O)N2CCC[C@@H]2C(=O)N[C@@H](CCCNC(C)C)C(=O)N[C@@H](CCCNC(=N)N)C(=O)N[C@@H](Cc2ccc(O)cc2)C(=O)N3)cc1 [Ex. 2, cyclo(-Tyr^1-His^2-Tyr(Me)^3-Cys^4-Ser^5-Ala^6-^DPro^7-Orn(iPr)^8-Arg^9-Tyr^10-Cys^11-Tyr^12-Gln^13-Lys(iPr)^14-^DPro^15-Pro^16-), disulfide bond between Cys^4 and Cys^11] (cyclo(YHY(Me)CSA[dP][Orn(iPr)]RYCYQ[Lys(iPr)][dP]P); disulfide 4-11) | – | – | – | – | 2 h | 2.38 mg/kg | 839 ± 148 CFU/mL | 1020 ± 262 CFU/mL | 2894 ± 329 CFU/mL | 1929 ± 643 CFU/mL | 1164 ± 151 CFU/mL | 373 ± 96 CFU/mL | 1314 ± 463 CFU/mL | 2894 ± 329 CFU/mL | 3589 ± 576 CFU/mL |
